In paper PMC7767381, “Exploring the Anti-Cancer Mechanism of Novel 3,4′-Substituted Diaryl Guanidinium Derivatives” (Pharmaceuticals, 2020):
Entries after “also recorded” stand apart in the source; their conditions may differ. Counter-ions that a name gives are not always drawn.

What was measured:
[1] = system: HL-60 cells; assay: alamarBlue cell viability assay, HL-60; format: cell-based; settings: Homo sapiens, HL-60, 72 h, alamarBlue, 72 h; read-out: HL-60 IC50 ± SEM
Source text: Cell viability and proliferation assays were used to evaluate the in vitro cytotoxicity of all synthesised compounds in a variety of different cancer cell lines using the alamarBlue® viability assay and the results are presented in Table 1 and Table 2. The sensitivity of cancer cells to drugs can often be compromised by PIK3CA, Ras and BRAF mutations. To determine whether such mutations are critical to the efficacy of our new compounds we tested them in a range of cancerous cell lines expressing different mutations. Firstly, we used the HL-60 (human promyelocytic leukaemia, NRas mutated) cell line for general cytotoxicity screening of all compounds. […] Lastly, toxicity against MCF-10A, which is a non-tumorigenic epithelial cell line, was also assessed for one of the most promising compounds (4). The graphs representing the viability results with the HL-60, MCF-7, HeLa, HCT-116, and HKH-2 cancer cell lines for compound 1 and derivatives 2, 3, and 4 are shown in Figures S7–S10 (ESI).
Cells were counted and seeded in 96-well plates at a density of 2 × 10^5 cells/mL for HL-60, 2.5 × 10^4 cells/mL for MCF-7, MCF10A and HeLa, 1 × 10^5 cells/mL for HCT116 and HKH-2, all of them in their respective media. The 96-well plates were then treated with a 1:100 dilution of stock concentrations of drugs or EtOH (1% v/v)/DMSO (0.1% v/v) as vehicle control in triplicate. Three blank wells containing 200 µL RPMI with no cells were also set-up as blanks. After a 72 h incubation, 20 µL of alamarBlue was added to each well. The plates were incubated in darkness at 37 °C for 4–5 h using a Molecular Devices microplate reader, the fluorescence (F) was then read at an excitation wavelength of 544 nm and an emission wavelength of 590 nm. Cell viability was then determined by subtracting the mean blank fluorescence (Fb) from the treated sample fluorescence (Fs) and expressing this as a percentage of the fluorescence of the blanked vehicle control (Fc). […] The results were then plotted as a nonlinear regression, sigmoidal dose-response curves on Prism, from which the IC50 value for each drug was determined. […]
Pharmacy, TCD. It was maintained in Roswell Park Memorial Institute (RPMI) 1640 medium with stable glutamate (GlutaMax I) supplemented with 10% (v/v) fetal bovine serum (FBS), 1% (v/v) penicillin/ streptomycin (pen-strep) and 2 mM L-glutamine. […]
4.4. AlamarBlue ® Cell Viability Assay
Cells were counted and seeded in 96 well plates at a density of 2 × 10^5 cells/mL for HL-60, 2.5× 10^4 cells/mL for MCF-7, MCF10A and HeLa, 1 × 10^5 cells/mL for HCT116 and HKH-2, all of them in their respective media. The 96 well plates were then treated with a 1:100 dilution of stock concentrations of drugs or EtOH (1% v/v)/DMSO (0.1% v/v) as vehicle control in triplicate.
Three blank wells containing 200 µL media with no cells were also set-up as blanks. After a 72 h incubation, 20 µL of AlamarBlue was added to each well. The plates were incubated in darkness at 37 °C for 4-5 h. Using a Molecular Devices microplate reader, the fluorescence (F) was then read at an excitation wavelength of 544 nm and an emission wavelength of 590 nm.
Cell viability was then determined by subtracting the mean blank fluorescence (Fb) from the treated sample fluorescence (Fs) and expressing this as a percentage of the fluorescence of the blanked vehicle control (Fc). […] The results were […]
then plotted as a nonlinear regression, sigmoidal dose-response curves on Prism, from which the IC50 value for each drug was determined.
Fs − Fb x 100 = % Cell Viability
60 cell line in a dose-dependent manner.
(1 picture or pasted object on this page, not shown here)

[2] = system: ERK phosphorylation (MAPK/ERK pathway); assay: Western immunoblot of ERK phosphorylation in HL-60 extracts; format: cell-based, human; settings: HL-60, 5 µM, 16 h
Method: Thus, using Western immunoblot analysis of HL-60 extracts, we investigated the expression and phosphorylation levels of ERK (as an indication of ERK activation), which is the downstream effector of the Ras/BRAF signalling pathway (Figure 6).
HL60s were seeded in T25 flasks at 50 × 10^4 cells/mL and cells were treated with either vehicle [0.5% EtOH (v/v)], 1–4, 9 or 52 (5 µM), as well as 1 (10 µM as reported). After 16 h, cells were collected and washed with PBS. Cell pellets were re-suspended in cold cell lysis buffer (radio-immunoprecipitation assay buffer) supplemented with 1% phosphatase inhibitor cocktail 2 and 3 (Sigma) and 10% protease inhibitor (Roche). Cells were lysed for 30 min on ice. Protein concentration was then determined by BCA assay. Lysates were boiled with Laemmli sample buffer [Tris-HCL 50 mM (pH 6.7), glycerol 10% (w/v), sodium dodecyl sulphate 2% (w/v), bromophenol blue 0.02% (w/v)] containing DTT […] for 10 min at 90 °C. Moreover, 20 µg of lysates were resolved by sodium dodecyl sulphate polyacrylamide gel electrophoresis (SDS-PAGE) and transferred onto PVDF transfer membrane (EMD Millipore). Membranes were blocked with 5% non-fat milk and probed with primary antibodies for ERK and phospho-ERK (Cell Signalling). Anti-GAPDH was used as a loading control (Calbiochem).
Figure 6 Western immunoblot of HL-60 cell extracts following incubation with compounds 2, 3, 4, 9, 52 and 1 (as a control). HL60 cells were seeded at 2 × 10^5 cells/mL and were treated with either vehicle [0.5% EtOH (v/v)], compounds 52, 2, 9, 3 and 4 (5 µM) or compound 1 (5 and (*) 10 µM, as in reference) for 16 h. Cells were lysed and equal amounts of protein were loaded and separated on 15% SDS-PAGE gels, transferred to PVDF membrane and probed with antibodies against total and phosphorylated ERK. Anti-GAPDH was used as a loading control. Results are representative of 2 independent experiments.
HL-60 cells were seeded in T25 flasks at 50 x10^4 cells/mL and treated with either vehicle [0.5% […]
After 16 hours, cells were […]
collected and washed with PBS. Cell pellets were re-suspended in cold cell lysis buffer (radio-immunoprecipitation assay buffer) supplemented with 1% phosphatase inhibitor cocktail 2 and 3 (Sigma) and 10% protease inhibitor (Roche). Cells were lysed for 30 minutes on ice.
Protein concentration was then determined by BCA assay. Lysates were boiled with laemmli sample buffer [Tris-HCL 50 mM (pH 6.7), glycerol 10% (w/v), sodium dodecyl sulphate 2% (w/v), bromophenol blue 0.02% (w/v)] containing DTT […] for 10 min. at 90 °C. Also 20 µg of lysates were resolved by sodium dodecyl sulphate polyacrylamide gel electrophoresis (SDS - PAGE) and transferred onto PVDF transfer membrane (EMD Millipore). Membranes were blocked with 5% non-fat milk and probed with primary antibodies for ERK and phospho-ERK (Cell Signaling). Anti-GAPDH was used as a loading control (Calbiochem).

SMILES	melting point	IC50 [1]	effect on ERK phosphorylation (Ras/BRAF pathway) [2]
N=C(N)Nc1ccc(Oc2cccc(NC(=N)Nc3ccc(F)c(F)c3)c2)cc1 (as salt: hydrochloride) [Compound 6, 1-(3:4-Di-fluorophenyl)-2-(3-(4-guanidinophenoxy)phenyl)guanidine dihydrochloride]	158 to 160 °C	–	–
N=C(N)Nc1ccc(Oc2cccc(NC(=N)Nc3ccc(F)c(F)c3)c2)cc1 [Compound 6, 1-(3:4-Di-fluorophenyl)-2-(3-(4-guanidinophenoxy)phenyl)guanidine dihydrochloride]	–	> 100 µM	–
N=C(N)Nc1ccc(Oc2cccc(N=C(N)Nc3ccc(I)cc3F)c2)cc1 [Compound 7, 1-(2-Fluoro-4-iodophenyl)-2-(3-(4-guanidinophenoxy)phenyl)guanidine dihydrochloride]	–	8.63 ± 0.51 µM	–
N=C(N)Nc1ccc(Oc2cccc(N=C(N)Nc3ccc(Br)cc3)c2)cc1 [Compound 8, 1-(4-Bromophenyl)-2-(3-(4-guanidinophenoxy)phenyl)guanidine dihydrochloride]	–	15.3 ± 1.98 µM	–
N=C(N)Nc1cccc(Oc2ccc(N=C(N)Nc3ccc(Br)c(C(F)(F)F)c3)cc2)c1 [Compound 11, 1-(4-Bromo-3-(trifluoromethyl)phenyl)-2-(4-(3-guanidinophenoxy)phenyl)guanidine dihydrochloride]	–	11 ± 0.64 µM	–
Cl.N=C(N)Nc1ccc(Oc2cccc(Nc3cccc(S(F)(F)(F)(F)F)c3)c2)cc1 [Compound 30, 1-(4-(3-((3-(Pentafluorosulfanyl)phenyl)amino)phenoxy)phenyl)guanidine hydrochloride]	104 to 106 °C	3.23 ± 0.36 µM	–
N=C(N)Nc1ccc(Oc2cccc(NC(=N)Nc3ccc(Br)cc3)c2)cn1 [Compound 51, 1-(4-Bromophenyl)-3-(3-((6-guanidinopyridin-3-yl)oxy)phenyl)guanidine dihydrochloride]	–	9.37 ± 0.54 µM	–
Cl.Cl.N=C(N)Nc1ccc(Oc2cccc(NC(=N)Nc3ccc(Br)c(C(F)(F)F)c3)c2)cn1 [Compound 52, 1-(4-Bromo-3-(trifluoromethyl)phenyl)-3-(3-((6-guanidinopyridin-3-yl)oxy)phenyl) guanidine dihydrochloride]	–	1.53 ± 0.23 µM	inhibiting ERK phosphorylation; also recorded: abrogates ERK activation
NS(=O)(=O)Nc1ccc(Oc2cccc(Nc3ccc(Cl)c(C(F)(F)F)c3)c2)cc1 [Compound 75]	124 to 126 °C	9.14 ± 0.69 µM	–

More lines, main results first:

melting point	IC50 [1]	SMILES	effect on ERK phosphorylation (Ras/BRAF pathway) [2]
92 to 94 °C	–	N=C(N)Nc1ccc(Oc2cc(F)cc(Nc3ccc(Cl)c(C(F)(F)F)c3)c2)cc1 (as salt: hydrochloride) [Compound 36, 1-(4-(3-((4-Chloro-3-(trifluormethyl)phenyl)amino)-5-fluorophenoxy)phenyl)guanidine hydrochloride]	–
–	> 100 µM	N=C(N)Nc1ccc(Oc2cccc(N=C(N)Nc3ccc(F)cc3)c2)cc1 [Compound 5, 1-(4-Fluorophenyl)-2-(3-(4-guanidinophenoxy)phenyl)guanidine dihydrochloride]	–
–	2.07 ± 0.33 µM	Cl.Cl.N=C(N)Nc1ccc(Oc2cccc(N=C(N)Nc3ccc(Br)c(C(F)(F)F)c3)c2)cc1 [Compound 9, 1-(4-Bromo-3-(trifluoromethyl)phenyl)-2-(3-(4-guanidinophenoxy)phenyl)guanidine dihydrochloride]	inhibiting ERK phosphorylation; also recorded: abrogates ERK activation
–	8.85 ± 0.55 µM	N=C(N)Nc1cccc(Oc2ccc(N=C(N)Nc3ccc(I)cc3F)cc2)c1 [Compound 10, 1-(2-Fluoro-4-iodophenyl)-2-(4-(3-guanidinophenoxy)phenyl)guanidine dihydrochloride]	–
50 to 52 °C	7.5 ± 0.05 µM	Cl.N=C(N)Nc1ccc(Oc2cccc(Nc3ccc(Cl)cc3)c2)cc1 [Compound 28, 1-(4-(3-((4-Chlorophenyl)amino)phenoxy)phenyl)guanidine hydrochloride]	–
93 to 95 °C	4.64 ± 0.83 µM	Cl.N=C(N)Nc1ccc(Oc2cccc(Nc3cccc(C(F)(F)F)c3)c2)cc1 [Compound 29, 1-(4-(3-((3-(Trifluoromethyl)phenyl)amino)phenoxy)phenyl)guanidine hydrochloride]	–
–	4.07 ± 0.1 µM	N=C(N)Nc1ccc(Oc2cc(F)cc(Nc3ccc(Cl)c(C(F)(F)F)c3)c2)cc1 [Compound 36, 1-(4-(3-((4-Chloro-3-(trifluormethyl)phenyl)amino)-5-fluorophenoxy)phenyl)guanidine hydrochloride]	–
–	11.6 ± 0.27 µM	N=C(N)Nc1ccc(Oc2cccc(NC(=N)Nc3ccc(F)c(F)c3)c2)cn1 [Compound 49, 1-(3,4-Di-fluorophenyl)-3-(3-((6-guanidinopyridin-3-yl)oxy)phenyl)guanidine dihydrochloride]	–
–	8.33 ± 0.32 µM	N=C(N)Nc1ccc(Oc2cccc(NC(=N)Nc3ccc(I)cc3F)c2)cn1 [Compound 50, 1-(2-Fluoro-4-iodophenyl)-3-(3-((6-guanidinopyridin-3-yl)oxy)phenyl)guanidine dihydrochloride]	–
